In publication PMC9958262, “Endocannabinoids enhance hKV7.1/KCNE1 channel function and shorten the cardiac action potential and QT interval” (eBioMedicine, 2023):

Key:
Assay type in all cases: cell-based
hKV7.1/KCNE1 (KV7.1) [1] = biological target: T1, hKV7.1/KCNE1 (KV7.1) (Homo sapiens, UniProt P51787); test: two-electrode voltage clamp in Xenopus oocytes, V50 shift
T1 construct: gene KCNQ1; with KCNE1

hKV7.1/KCNE1 (KV7.1) [2] = biological target: T1, hKV7.1/KCNE1 (KV7.1); test: two-electrode voltage clamp in Xenopus oocytes, V50 shift at […] (moderate effect)
hKV7.1/KCNE1 (KV7.1) [3] = biological target: T1, hKV7.1/KCNE1 (KV7.1); test: two-electrode voltage clamp in Xenopus oocytes, V50 shift at […]
hKV7.1/KCNE1 (KV7.1) [4] = biological target: T1, hKV7.1/KCNE1 (KV7.1); test: two-electrode voltage clamp in Xenopus oocytes, V50 shift (current amplitude EC50 […]); site mutagenesis supported by MD
hKV7.1/KCNE1 (KV7.1) [5] = biological target: T1, hKV7.1/KCNE1 (KV7.1); test: two-electrode voltage clamp in Xenopus oocytes, V50 shift; mutagenesis (R228Q abolishes V50 shift); also active on KV7.[…] alone (EC50 […])

T1 sequence (P51787 whole entry): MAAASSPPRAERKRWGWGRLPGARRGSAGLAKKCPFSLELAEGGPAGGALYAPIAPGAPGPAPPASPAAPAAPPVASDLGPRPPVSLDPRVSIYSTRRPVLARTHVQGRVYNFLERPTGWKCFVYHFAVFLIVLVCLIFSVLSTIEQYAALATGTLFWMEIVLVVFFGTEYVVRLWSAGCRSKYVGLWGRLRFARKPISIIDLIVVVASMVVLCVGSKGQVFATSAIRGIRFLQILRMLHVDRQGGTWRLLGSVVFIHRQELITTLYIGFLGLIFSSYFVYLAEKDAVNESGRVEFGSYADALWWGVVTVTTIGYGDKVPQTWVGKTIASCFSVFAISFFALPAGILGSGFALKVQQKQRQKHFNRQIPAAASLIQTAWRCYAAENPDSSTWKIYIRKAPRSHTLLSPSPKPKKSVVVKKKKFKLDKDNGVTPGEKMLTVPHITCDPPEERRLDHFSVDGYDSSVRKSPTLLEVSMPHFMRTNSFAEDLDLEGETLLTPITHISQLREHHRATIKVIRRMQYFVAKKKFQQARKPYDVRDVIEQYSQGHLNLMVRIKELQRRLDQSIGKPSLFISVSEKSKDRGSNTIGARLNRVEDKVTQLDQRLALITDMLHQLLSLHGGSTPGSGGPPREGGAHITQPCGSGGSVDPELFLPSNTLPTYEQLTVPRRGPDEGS

Question: `CC/C=C\C/C=C\C/C=C\C/C=C\C/C=C\C/C=C\CCC(=O)NC(CO)C(=O)O` (stereo not shown) [DOC-S] was tested. Which EC50 (hKV7.1/KCNE1 (KV7.1) [1]) did it give?
Answer: 5 µM

Question: How did the “ΔV50 (mV)” value (hKV7.1/KCNE1 (KV7.1) [2]) turn out when `CCCCC/C=C\C/C=C\C/C=C\C/C=C\CCCC(=O)NCCCC(=O)O` [NAGABA] was run?
Answer: −6.7 mV

Question: How did the “ΔV50 (mV)” value (hKV7.1/KCNE1 (KV7.1) [3]) turn out when `CCCCC/C=C\C/C=C\C/C=C\C/C=C\CCCC(=O)NCC(=O)O` [NAGly] was run?
Answer: −25.5 mV

Question: How did the “ΔV50 (mV)” value (hKV7.1/KCNE1 (KV7.1) [3]) turn out when `CCCCC/C=C\C/C=C\C/C=C\C/C=C\CCCC(=O)N[C@@H](C)C(=O)O` [NALA] was run?
Answer: −22.2 mV

Question: `CCCCC/C=C\C/C=C\C/C=C\C/C=C\CCCC(=O)N[C@H](CO)C(=O)O` [ARA-D-S] was tested. Which “ΔV50 (mV)” value (hKV7.1/KCNE1 (KV7.1) [3]) did it give?
Answer: −29.0 mV

Question: With `CCCCC/C=C\C/C=C\CCCCCCCC(=O)NC(CO)C(=O)O` (stereo not shown) [LIN-S] as the compound, how does the EC50 (hKV7.1/KCNE1 (KV7.1) [4]) read?
Answer: 12 µM

Question: Which EC50 (hKV7.1/KCNE1 (KV7.1) [5]) does the source give for `CCCCC/C=C\C/C=C\C/C=C\C/C=C\CCCC(=O)N[C@@H](CO)C(=O)O` [ARA-S] here?
Answer: 9 µM
